Results reported in ChEMBL document CHEMBL2046435, “Cytotoxic metabolites from the antarctic psychrophilic fungus Oidiodendron truncatum” (J Nat Prod, 2012).

Key:
Assay type in all cases: functional, cell-based
HCT-8 = assay: Cytotoxicity against human HCT8 cells after 72 hrs by MTT assay; settings: HCT-8, 72 h
Bel-7402 = assay: Cytotoxicity against human Bel7402 cells after 72 hrs by MTT assay; settings: Bel-7402, 72 h
BGC-823 = assay: Cytotoxicity against human BGC823 cells after 72 hrs by MTT assay; settings: BGC-823, 72 h
A549 = assay: Cytotoxicity against human A549 cells after 72 hrs by MTT assay; settings: A549, 72 h
A2780 = assay: Cytotoxicity against human A2780 cells after 72 hrs by MTT assay; settings: A2780, 72 h

Row | Compound | IC50 (HCT-8) | IC50 (Bel-7402) | IC50 (BGC-823) | IC50 (A549) | IC50 (A2780)
1 | O=C1N[C@@H](Cc2c[nH]c3ccccc23)C(=O)N[C@H]1CO | > 10000 nM | > 10000 nM | > 10000 nM | > 10000 nM | > 10000 nM
2 | CN1C(=O)[C@]23SSS[C@]1(CO)C(=O)N2[C@H]1Nc2ccccc2[C@@]1(c1c[nH]c2ccccc12)[C@@H]3O | 1180 nM | 750 nM | 1460 nM | 1530 nM | 420 nM
3 | CS[C@]1(CO)NC(=O)[C@](Cc2c[nH]c3ccccc23)(SC)NC1=O [CHETOSEMINUDIN C] | > 10000 nM | > 10000 nM | > 10000 nM | > 10000 nM | > 10000 nM
4 | CN1C(=O)[C@]23SS[C@@]1(CO)C(=O)N2[C@H]1Nc2ccccc2C1([C@@]12c4ccccc4N[C@@H]1N1C(=O)[C@]4(CO)SSS[C@]1(C(=O)N4C)[C@H]2O)[C@@H]3O (stereo partly drawn) [CHETRACIN B] | 13 nM | 3 nM | 11 nM | 22 nM | 28 nM
5 | CN1C(=O)[C@]23SSS[C@@]1(CO)C(=O)N2[C@H]1Nc2ccccc2C1([C@@]12c4ccccc4N[C@@H]1N1C(=O)[C@]4(CO)SSS[C@]1(C(=O)N4C)[C@H]2O)[C@@H]3O (stereo partly drawn) [CHETRACIN C] | 490 nM | 380 nM | 700 nM | 720 nM | 580 nM
6 | CS[C@@]1(CO)C(=O)N2[C@H]3Nc4ccccc4C3([C@@]34c5ccccc5N[C@@H]3N3C(=O)[C@](CO)(SC)N(C)C(=O)[C@@]3(SC)[C@H]4O)[C@H](O)[C@]2(SC)C(=O)N1C (stereo partly drawn) [CHETRACIN D] | 1060 nM | 810 nM | 1830 nM | 140 nM | 1650 nM
7 | CN1C(=O)[C@]23SS[C@@]1(CO)C(=O)N2[C@H]1Nc2ccccc2C1([C@@]12c4ccccc4N[C@@H]1N1C(=O)[C@]4(CO)SS[C@]1(C(=O)N4C)[C@H]2O)[C@@H]3O (stereo partly drawn) [MELINACIDIN IV] | 52 nM | 5 nM | 47 nM | 22 nM | 54 nM
8 | CS[C@@]1(CO)C(=O)N2[C@H]3N(C=O)c4ccccc4[C@@]3(c3c[nH]c4ccccc34)[C@H](O)[C@]2(SC)C(=O)N1C [OIDIOPERAZINE A] | > 10000 nM | > 10000 nM | > 10000 nM | > 10000 nM | > 10000 nM
9 | CON1C(=O)C(CO)NC(=O)C1(O)Cc1c[nH]c2ccccc12 (stereo not drawn) [OIDIOPERAZINE B] | > 10000 nM | > 10000 nM | > 10000 nM | > 10000 nM | > 10000 nM
10 | COC1(CO)NC(=O)/C(=C/c2c[nH]c3ccccc23)NC1=O (stereo not drawn) [OIDIOPERAZINE C] | > 10000 nM | > 10000 nM | > 10000 nM | > 10000 nM | > 10000 nM
11 | C=C1NC(=O)C(Cc2c[nH]c3ccccc23)(OC)N(OC)C1=O (stereo not drawn) [OIDIOPERAZINE D] | > 10000 nM | > 10000 nM | > 10000 nM | > 10000 nM | > 10000 nM
12 | CC(=O)O[C@H]1C(=O)[C@@]2(C)[C@H]([C@H](OC(=O)c3ccccc3)[C@]3(O)C[C@H](OC(=O)[C@H](O)[C@@H](NC(=O)c4ccccc4)c4ccccc4)C(C)=C1C3(C)C)[C@]1(OC(C)=O)CO[C@@H]1C[C@@H]2O [PACLITAXEL] | – | 6 nM | < 1 nM | – | < 1 nM
13 | CS[C@@]1(CO)C(=O)N2[C@H]3Nc4ccccc4[C@@]3(c3c[nH]c4ccccc34)[C@H](O)[C@]2(SC)C(=O)N1C [T988 B] | > 10000 nM | > 10000 nM | > 10000 nM | > 10000 nM | > 10000 nM
14 | CN1C(=O)[C@]23SS[C@]1(CO)C(=O)N2[C@H]1Nc2ccccc2[C@@]1(c1c[nH]c2ccccc12)[C@@H]3O [T988 C] | 700 nM | 550 nM | 670 nM | 1240 nM | 480 nM
